Where two headings read alike, the source gives them in different places. Marks after values point to notes of the source that are not given here.
What was measured:
[1] = tested on: rat skeletal myoblast L6 cells; test: cells; details: L6, read-out: L6 cells IC50
Method: (§1) Cytotoxicity against mammalian cells was assessed using microtitre plates following a described procedure [58]. Briefly, rat skeletal muscle L6 cells were seeded at 1 × 10^4 mL^−1 in 200 μL of growth medium containing different compound concentrations. The plates were incubated for 6 days at 37 °C and 20 μL resazurin was then added to each well. After a further 8 h incubation, the fluorescence was determined using a Spectramax plate reader.

[2] = in vitro; details: rat
Method: as §1

[3] = tested on: bloodstream form T. brucei (strain 221); test: Trypanocidal activity against cultured bloodstream form T. brucei (resazurin); details: for IC50: mean of triplicate ± SEM; for IC90: pH 7.4, read-out: T. brucei IC90
Method: T. brucei in the logarithmic phase of growth were diluted back to 2.5 × 10^4 mL^−1 and aliquoted into 96-well plates. The compounds were then added at a range of concentrations and the plates incubated at 37 °C. Each drug concentration was tested in triplicate. Resazurin was added after 48 h and the plates incubated for a further 16 h and the plates then read in a Spectramax plate reader. Results were analysed using GraphPad Prism.

[4] = biological target: T1, Electrophorus electricus AChE (EeAChE) (Electrophorus electricus, UniProt O42275); design: method as in PMID 24389509; details: same experimental conditions; ref [40]; cited from earlier work
[5] = tested on: human recombinant AChE (hAChE); design: method as in PMID 24389509; details: ref [40]; cited from earlier work
[6] = tested on: T. cruzi strain MHOM/ES/2203/BCN590 (Tcl) epimastigote forms; test: Activity against epimastigotes of T. cruzi (cell counting); details: mean ± SD of duplicate experiments performed at least twice
[7] = tested on: L. infantum strain MCAN/ES/92/BCN722 promastigote forms; test: Activity against promastigotes of L. infantum (acid phosphatase); type: cell-based, Leishmania infantum; details: promastigote form, mean ± SD of duplicate experiments performed at least twice
[8] = for Pe: PAMPA-BBB, PBS:EtOH 70:30, mean ± SD of three independent experiments; for Pe (prediction) of BBB permeation: class from PAMPA-BBB Pe
Method: (§2) Thus, the brain passive permeability of the novel compounds was evaluated in vitro through the widely used PAMPA-BBB method [[50]

[9] = biological target: T1, Electrophorus electricus AChE (EeAChE); test: biochemical; type: biochemical; details: for IC50: mean ± SEM; for inhibition at 30 µM: the IC50 could not be determined
[10] = in vitro; details: pig, PAMPA
Method: as §2

[11] = commercial drugs for PAMPA-BBB validation; ref [2]; cited from earlier work
[12] = tested on: rat skeletal myoblast L6 cells
Method: as §1

[13] = tested on: bloodstream form T. brucei (strain 221); details: read-out: T. brucei IC50; nifurtimox reference value; ref [49]; cited from earlier work
[14] = rat skeletal muscle L6 cells, SITb: selectivity index as the ratio of cytotoxic to anti-T. brucei IC50 values, L6 IC50 / T. brucei IC50
[15] = Trypanosoma brucei, pH 7.4, read-out: T. brucei IC50, bloodstream form, pH 7.4
[16] = Trypanosoma cruzi, read-out: T. cruzi IC50, epimastigote form
[17] = read-out: T. cruzi IC50, epimastigote form
[18] = rat skeletal muscle L6 cells, SILi: selectivity index as the ratio of cytotoxic to anti-L. infantum IC50 values, L6 IC50 / L. infantum IC50
[19] = rat skeletal muscle L6 cells, SITc: selectivity index as the ratio of cytotoxic to anti-T. cruzi IC50 values, L6 IC50 / T. cruzi IC50
[20] = read-out: T. brucei IC50, bloodstream form, pH 7.4

T1 sequence (O42275 24-633): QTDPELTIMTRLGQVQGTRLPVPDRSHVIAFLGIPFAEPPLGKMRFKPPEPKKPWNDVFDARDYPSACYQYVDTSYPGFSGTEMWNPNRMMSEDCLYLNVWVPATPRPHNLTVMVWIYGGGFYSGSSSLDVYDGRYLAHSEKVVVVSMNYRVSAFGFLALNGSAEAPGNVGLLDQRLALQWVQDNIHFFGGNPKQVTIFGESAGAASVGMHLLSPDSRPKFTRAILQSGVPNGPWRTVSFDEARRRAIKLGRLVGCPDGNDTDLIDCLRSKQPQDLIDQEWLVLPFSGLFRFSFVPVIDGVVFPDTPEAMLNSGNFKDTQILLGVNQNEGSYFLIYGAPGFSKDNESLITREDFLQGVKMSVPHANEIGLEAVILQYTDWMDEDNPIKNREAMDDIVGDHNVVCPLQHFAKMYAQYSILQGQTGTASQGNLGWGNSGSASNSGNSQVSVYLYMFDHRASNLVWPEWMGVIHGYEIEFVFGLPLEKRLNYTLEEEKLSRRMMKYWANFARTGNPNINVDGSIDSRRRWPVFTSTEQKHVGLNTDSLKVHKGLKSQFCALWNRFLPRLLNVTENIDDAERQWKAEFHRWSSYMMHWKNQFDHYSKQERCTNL

Row | Compound | IC50 [1] | selectivity ratio at 6 days [2, 14] | IC50 [3, 15] | IC90 ([3]; Trypanosoma brucei) | IC50 [6, 16] | IC50 ([7]; Leishmania infantum) | Pe [8] | Pe (prediction) of BBB permeation [8] | IC50 [9] | selectivity ratio at 6 days [2, 18] | selectivity ratio at 6 days [2, 19] | also measured
1 | CCNCc1ccc2nc(-c3ccc(Cl)cc3)c3c(c2c1)N(Cc1ccccc1)CCC3 [Compound 1] | 7.08 ± 0.11 µM | 2.1 | 3.33 ± 0.18 µM | 4.39 ± 0.04 µM |  |  |  |  |  |  |  | IC50 [4]: 0.15 ± 0.01 µM; IC50 [5]: 0.94 µM
2 | NCc1ccc(-c2nc3ccc(Cl)cc3c3c2CCCCN3)cc1 [Compound 32, 4-{10-Chloro-2,3,4,5-tetrahydro-1H-azepino[3,2-c]quinolin-6-yl}benzylamine] | 7.02 ± 0.27 µM | 3 | 2.33 ± 0.12 µM | 3.35 ± 0.05 µM | ~30 µM | 5 to 8 µM | 11.6 ± 0.2 10^−6 cm s^−1 | CNS+ (compounds of high BBB permeation (CNS+): Pe (10^−6 cm s^−1) > 5.25) | 1.2 ± 0.13 µM | 1.5 | 0.2 | IC50 [6, 17]: 32.4 ± 0.6 µM; IC50 [7]: 4.8 ± 0.7 µM
3 | NCc1ccc(-c2nc3cc(Cl)ccc3c3c2CCCN3)cc1 [Compound 33, 4-{8-Chloro-1,2,3,4-tetrahydrobenzo[h][1,6]naphthyridin-5-yl}benzylamine] | 3.07 ± 0.66 µM | 2.5 | 1.25 ± 0.05 µM | 2.12 ± 0.02 µM | 76.1 ± 3.2 µM | 13 ± 0.6 µM | 4.0 ± 1.0 10^−6 cm s^−1 |  | 0.44 ± 0.04 µM | 0.2 | 0.04 | 
4 | N#Cc1ccc(-c2nc3ccc(Cl)cc3c3c2CCCO3)cc1 [Compound 38, 4-{9-Chloro-3,4-dihydro-2H-pyrano[3,2-c]quinolin-5-yl}benzonitrile] | 36.3 ± 8.1 µM | 3.8 | 9.61 ± 0.27 µM | 13.7 ± 1 µM | 178 ± 92 µM | 23.5 ± 2.4 µM | 29.7 ± 3.8 10^−6 cm s^−1 | CNS+ (compounds of high BBB permeation (CNS+): Pe (10^−6 cm s^−1) > 5.25) | 2.7 ± 0.45 µM | 1.5 | 0.2 | 
5 | NCc1ccc(-c2nc3ccc(Cl)cc3c3c2CCCO3)cc1 [Compound 39, 4-{9-Chloro-3,4-dihydro-2H-pyrano[3,2-c]quinolin-5-yl}benzylamine] | 7 ± 0.19 µM | 4.8 | 1.5 µM | 1.77 ± 0.02 µM | ~30 µM | 6.1 ± 0.2 µM | 15.5 ± 1.8 10^−6 cm s^−1 | CNS+ (compounds of high BBB permeation (CNS+): Pe (10^−6 cm s^−1) > 5.25) | > 30 µM | 1.1 | 0.2 | IC50 [6, 17]: 29.2 ± 3.7 µM; inhibition at 30 µM [9]: 45%; IC50 [3, 20]: 1.46 ± 0.02 µM
6 | Clc1ccc2nc(-c3cccs3)c(CCCN3CCCC3)cc2c1 [Compound 49, N-{3-[6-Chloro-2-(2-thienyl)quinolin-3-yl]propyl}pyrrolidine] | 9.44 ± 0.14 µM | 2.7 | ~5 µM | 4.93 ± 0.17 µM | 35.2 ± 12.6 µM | ~15 µM | 12.9 ± 0.1 10^−6 cm s^−1 | CNS+ (compounds of high BBB permeation (CNS+): Pe (10^−6 cm s^−1) > 5.25) | ~30 µM | 0.7 | 0.3 | IC50 [7]: 13.1 ± 5.8 µM; inhibition at 30 µM [9]: 54%; IC50 [3, 20]: 3.56 ± 0.17 µM
7 | CCn1cc(C(=O)O)c(=O)c2cc(F)c(N3CCNCC3)cc21 [Norfloxacin] |  |  |  |  |  |  |  |  |  |  |  | Papp [10]: 0.9 ± 0.02 ×10⁻⁶ cm/s
8 | CN1C(C(=O)Nc2ccccn2)=C(O)c2ccccc2S1(=O)=O [Piroxicam] |  |  |  |  |  |  |  |  |  |  |  | Pe, literature value [11]: 2.5 10–6 cm s–1
9 | CN(C)CCCN1c2ccccc2Sc2ccccc21 [Promazine] |  |  |  |  |  |  |  |  |  |  |  | Pe, literature value [11]: 8.8 10–6 cm s–1
10 | O.O.O.O=C([O-])C(O)C(O)C(=O)[O-].O=C([O-])C(O)C(O)C(=O)[O-].[K+].[K+].[Sb].[Sb] (stereo not shown) [Sb (III), Potassium antimony (III) tartrate hydrate, reference compound] |  |  |  |  |  |  |  |  |  |  |  | IC50 [7]: 24.3 ± 1.7 µM; SILi: selectivity index as the ratio of cytotoxic to anti-L. infantum IC50 values [12]: 0.1 ^g
11 | CC1CS(=O)(=O)CCN1/N=C/c1ccc([N+](=O)[O-])o1 (stereo not shown) [nifurtimox, reference compound] | 32 ± 1.1 µM |  |  |  |  |  |  |  |  |  |  | IC50 [13]: 4.4 ± 0.7 µM; selectivity ratio at 6 days ([2]; SITb: selectivity index as the ratio of cytotoxic to anti-T. brucei IC50 values): 7.3
